The target of this assay is T1, recombinant Plk1 protein (Homo sapiens, UniProt P53350).
T1 construct: histidine tag (N); made in house; host or cells: SF9 insect cells
T1 sequence (P53350 whole entry): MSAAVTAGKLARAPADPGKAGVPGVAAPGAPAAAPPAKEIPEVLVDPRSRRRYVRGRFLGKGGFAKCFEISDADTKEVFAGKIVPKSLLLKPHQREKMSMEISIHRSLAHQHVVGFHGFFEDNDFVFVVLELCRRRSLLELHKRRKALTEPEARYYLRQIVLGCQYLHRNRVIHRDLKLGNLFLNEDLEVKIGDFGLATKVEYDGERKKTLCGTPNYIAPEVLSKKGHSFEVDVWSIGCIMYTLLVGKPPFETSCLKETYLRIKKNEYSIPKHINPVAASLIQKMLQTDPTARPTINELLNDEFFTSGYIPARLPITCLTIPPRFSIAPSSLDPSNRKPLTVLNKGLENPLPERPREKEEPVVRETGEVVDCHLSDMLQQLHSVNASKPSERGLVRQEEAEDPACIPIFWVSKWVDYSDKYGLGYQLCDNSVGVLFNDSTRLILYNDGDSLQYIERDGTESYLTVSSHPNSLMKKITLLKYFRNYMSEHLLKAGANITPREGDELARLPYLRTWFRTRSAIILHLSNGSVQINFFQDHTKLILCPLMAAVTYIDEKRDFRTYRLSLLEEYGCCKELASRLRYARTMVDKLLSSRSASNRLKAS
Briefly: Plk1 kinase activity inhibition assay (33P-ATP, alpha casein substrate, flash plates). The format is biochemical. Particulars: enzymatic assay, 100 nM Li-ATP, 80 minutes at 30° C. As to the method:
The inhibition of Plk1 kinase activity can be measured using recombinant Plk1 protein expressed as an N-terminally histidine-tagged protein in SF9 insect cells and alpha casein as substrate. The Plk1 assay is run in 96 well plates by incubating 50 to 100 ng per well recombinant Plk1, 500 ng per well alpha casein (Sigma, # C-6780) as substrate, 10 μl of compound of invention (test compounds were dissolved as 20 mM solutions in dimethylsulfoxide (DMSO) and subsequently diluted), and 100 nM Li-ATP (including ^33P-ATP) in 100 μl of reaction buffer ([…] HEPES, pH 7.5; 3 mM MgCl2; 3 mM MnCl2; 3 μM Na-Orthovanadat; 1 mM DTT; 1 μg/ml PEG 8000) for 80 minutes at 30° C. The reactions are terminated by adding 100 μl stopping buffer (2% H3PO4 for 5 minutes) and are washed 3 times with washing solution (0.9% NaCl). Determining ^33P incorporated into the protein substrate alpha casein, the detection is based on the adhesion of the phosphorylated protein to the surface of scintillator-coated flash plates (Perkin Elmer, USA; #SMP-200). Phosphorylation of alpha casein is measured by counting the radioactivity bound to the plate for 60 sec. using a plate reader (Perkin Elmer, USA; Wallac Microbeta). By this method, the IC50 value of the Plk1 inhibition is determined as described above.
Consider `C[C@@H](Oc1cc(-n2cnc3cnc(CN4CCN(C(=O)N(C)C)CC4)cc32)sc1C(N)=O)c1ccccc1Cl` [Example 128, 4-[(1-{5-carbamoyl-4-[(1R)-1-(2-chlorophenyl)ethoxy]-2-thienyl}-1H-imidazo[4,5-c]pyridin-6-yl)methyl]-N,N-dimethylpiperazine-1-carboxamide], for which the IC50 (as a rule, the midpoint of a concentration-inhibition curve) was under 0.01 µM.

Consider `NC(=O)c1sc(-n2cnc3cnc(C(=O)NCCN4CCOCC4)cc32)cc1OCc1ccccc1C(F)(F)F` [Example 5, 1-(5-Carbamoyl-4-{[2-(trifluoromethyl)benzyl]oxy}-2-thienyl)-N-(2-morpholin-4-ylethyl)-1H-imidazo[4,5-c]pyridine-6-carboxamide], for which the IC50 was in the range of 0.1 to 1 µM.

For the compound `C[C@@H](Oc1cc(-n2cnc3cnc(CN4CCN(C5CC5)CC4)cc32)sc1C(N)=O)c1ccccc1C(F)(F)F` [Example 60, 5-{6-[(4-cyclopropylpiperazin-1-yl)methyl]-1H-imidazo[4,5-c]pyridin-1-yl}-3-{(1R)-1-[2-(trifluoromethyl)phenyl]ethoxy}thiophene-2-carboxamide], the concentration for half-maximal inhibition (IC50) was under 0.01 µM. The same measure for `CCNCc1cc2ncn(-c3cc(O[C@H](C)c4ccccc4C(F)(F)F)c(C(N)=O)s3)c2cn1` [Example 117, 5-{6-[(ethylamino)methyl]-3H-imidazo[4,5-c]pyridin-3-yl}-3-{(1R)-1-[2-(trifluoromethyl)phenyl]ethoxy}thiophene-2-carboxamide]: 0.1 to 1 µM; for `CC(Oc1cc(-n2cnc3cnc(CO)cc32)sc1C(N)=O)c1ccc(F)cc1C(F)(F)F` (centres unmarked) [Example 51, 3-{1-[4-fluoro-2-(trifluoromethyl)phenyl]ethoxy}-5-[6-(hydroxymethyl)-1H-imidazo[4,5-c]pyridin-1-yl]thiophene-2-carboxamide]: under 0.01 µM; for `CC1CN(Cc2cc3c(cn2)ncn3-c2cc(O[C@H](C)c3ccccc3C(F)(F)F)c(C(N)=O)s2)CCN1C` (stereo partly drawn) [Example 74, 5-{6-[(3,4-dimethylpiperazin-1-yl)methyl]-1H-imidazo[4,5-c]pyridin-1-yl}-3-{(1R)-1-[2-(trifluoromethyl)phenyl]ethoxy}thiophene-2-carboxamide]: under 0.01 µM. The same measure for `C[C@@H](Oc1cc(-n2cnc3cnc(CN4C[C@@H]5C[C@H]4CN5)cc32)sc1C(N)=O)c1ccccc1C(F)(F)F` [Example 95, 5-{6-[(1S,4S)-2,5-diazabicyclo[2.2.1]hept-2-ylmethyl]-1H-imidazo[4,5-c]pyridin-1-yl}-3-{(1R)-1-[2-(trifluoromethyl)phenyl]ethoxy}thiophene-2-carboxamide]: under 0.01 µM. As for `C[C@@H](Oc1cc(-n2cnc3cc(CNC4CC4)ncc32)sc1C(N)=O)c1ccccc1C(F)(F)F` [Example 115, 5-{6-[(cyclopropylamino)methyl]-3H-imidazo[4,5-c]pyridin-3-yl}-3-{(1R)-1-[2-(trifluoromethyl)phenyl]ethoxy}thiophene-2-carboxamide], the IC50 was 0.01 to 0.1 µM. The same measure for `C[C@@H](Oc1cc(-n2cnc3cnc(CN4CCN(S(=O)(=O)N(C)C)CC4)cc32)sc1C(N)=O)c1ccccc1C(F)(F)F` [Example 71, 5-[6-({4-[(dimethylamino)sulfonyl]piperazin-1-yl}methyl)-1H-imidazo[4,5-c]pyridin-1-yl]-3-{(1R)-1-[2-(trifluoromethyl)phenyl]ethoxy}thiophene-2-carboxamide]: 0.01 to 0.1 µM; for `CCN1CCN(Cc2cc3c(cn2)ncn3-c2cc(OC(C)c3ccccc3F)c(C(N)=O)s2)CC1` (centres unmarked) [Example 152, 5-{6-[(4-ethylpiperazin-1-yl)methyl]-1H-imidazo[4,5-c]pyridin-1-yl}-3-[1-(2-fluorophenyl)ethoxy]thiophene-2-carboxamide]: 0.01 to 0.1 µM; for `CN1CCN(Cc2cc3c(cn2)ncn3-c2cc(OC(c3ccccc3Cl)C(F)(F)F)c(C(N)=O)s2)CC1` (centres unmarked) [Example 76, 3-[1-(2-chlorophenyl)-2,2,2-trifluoroethoxy]-5-{6-[(4-methylpiperazin-1-yl)methyl]-1H-imidazo[4,5-c]pyridin-1-yl}thiophene-2-carboxamide]: under 0.01 µM.
